In PMC7382241, “Genomic discovery of an evolutionarily programmed modality for small-molecule targeting of an intractable protein surface” (Proceedings of the National Academy of Sciences of the …, 2020) one finds KD data, which are given here for one compound.

The target in the test is T1, FKBP12 (Homo sapiens, UniProt P62942).
T1 construct: gene FKBP1A; AVI-tagged FKBP12, E. coli BL21(DE3)pLysS, immobilized on NTA sensor chip
The format is binding. The settings on record: 25 °C; binary complex.

T1 sequence (P62942 2-108): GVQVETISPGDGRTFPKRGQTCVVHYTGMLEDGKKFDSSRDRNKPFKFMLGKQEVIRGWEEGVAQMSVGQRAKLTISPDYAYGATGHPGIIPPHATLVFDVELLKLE

As for `C=CC[C@@H]1/C=C(\C)C[C@H](C)C[C@H](OC)[C@H]2O[C@@](O)(C(=O)C(=O)N3CCCC[C@H]3C(=O)O[C@H](/C(C)=C/[C@@H]3CC[C@@H](O)[C@H](OC)C3)[C@H](C)[C@@H](O)CC1=O)[C@H](C)C[C@@H]2OC` [FK506], the KD entry was “KD measurements by SPR for WDB001, WDB002, WDB003, WDB011, rapamycin, and FK506”.
